Experimental data: patent US20240101538A1, “PROTEIN-PROTEIN INTERACTION MODULATORS OF AURORA KINASE A AND THEIR USE IN THE PREVENTION AND/OR TREATMENT OF CANCER” (EBERHARD KARLS UNIVERSITÄT TÜBINGEN, priority 2020, published 2024)

Legend:
Aurora A = Aurora A (Homo sapiens (Human), UniProt O14965); assay: ADP-Glo Kinase Assay with Aurora A Kinase Enzyme System; format: biochemical; conditions: compounds tested from 1 μM
Method: To measure the effect of the compounds on the activity of AURKA, the IC50 of the compounds was determined with the ADP-Glo™ Kinase Assay (Promega, V9101) and the Aurora A Kinase Enzyme System (Promega, V1931). The assay was performed according to the manufacturer's instructions in a white 384-well plate format (Corning Assay Plate, LOT 32216024) by using 1.4 ng/μl Aurora A, […] and 0.1 μg/μl myelin basic protein (MBP) substrate in a total volume of 6 μl (transferred with Integra viaflo 96/384 handheld channel pipette). To generate a dose-response curve, a 3-fold serial dilution of the compounds was tested starting from 1 μM. The kinase was pre-incubated for 10 min at RT with the respective compound, before the substrate mix containing MBP and ATP was added. After 60 min at RT, 6 μl of the ADP-Glo reagent were added and incubated for another 60 min at RT. Afterwards 12 μl of the detection reagent were added and incubated for 30 min at RT before the luminescence was measured with an integration time of 500 ms by using a Filter Max F5 multi-mode microplate reader from Molecular Devices. As a negative control, the reaction was performed with MBP, ATP and Aurora A only. […]

AURKA = AURKA (Homo sapiens (Human), UniProt O14965); assay: Radioisotope filter binding assay (HotSpotSM; ReactionBiology) for AURKA kinase inhibition; format: biochemical
AURKA, sequence (O14965 whole entry): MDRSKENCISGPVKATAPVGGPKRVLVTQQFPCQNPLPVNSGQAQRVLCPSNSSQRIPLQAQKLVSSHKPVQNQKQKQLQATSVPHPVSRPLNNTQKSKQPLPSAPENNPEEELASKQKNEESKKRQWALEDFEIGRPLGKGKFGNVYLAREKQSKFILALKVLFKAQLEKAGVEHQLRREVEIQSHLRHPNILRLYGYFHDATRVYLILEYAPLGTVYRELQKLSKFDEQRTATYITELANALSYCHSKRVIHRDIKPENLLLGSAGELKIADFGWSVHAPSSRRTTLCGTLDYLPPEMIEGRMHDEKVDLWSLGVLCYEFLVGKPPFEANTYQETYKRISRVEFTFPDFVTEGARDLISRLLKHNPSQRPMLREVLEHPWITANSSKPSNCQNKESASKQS
From the text: Table 2 summarizes the EC values of different compounds of this invention determined by colony formation assays on NMP53^−/− and NMCdkn2a^ARF−/− cells, as well as the corresponding IC50 values for the kinase inhibition of AURKA, determined by radioisotope filter binding assay (HotSpotSM; ReactionBiology). Most compounds further show a strong selectivity for NMP53^−/− cells, which is indicated by a lower EC concentration of a particular compound required for inhibiting cell growth of NMP53^−/− cells compared to NMCdkn2a^ARF−/− cells.

MYC-AURKA interaction = MYC-AURKA interaction (Mus musculus (Mouse), UniProt P97477); assay: Proximity ligation assay (PLA) for MYC and AURKA in NMP53^−/− cells; format: cell-based, murine; conditions: 2 h after treatment
MYC-AURKA interaction, sequence (P97477 whole entry): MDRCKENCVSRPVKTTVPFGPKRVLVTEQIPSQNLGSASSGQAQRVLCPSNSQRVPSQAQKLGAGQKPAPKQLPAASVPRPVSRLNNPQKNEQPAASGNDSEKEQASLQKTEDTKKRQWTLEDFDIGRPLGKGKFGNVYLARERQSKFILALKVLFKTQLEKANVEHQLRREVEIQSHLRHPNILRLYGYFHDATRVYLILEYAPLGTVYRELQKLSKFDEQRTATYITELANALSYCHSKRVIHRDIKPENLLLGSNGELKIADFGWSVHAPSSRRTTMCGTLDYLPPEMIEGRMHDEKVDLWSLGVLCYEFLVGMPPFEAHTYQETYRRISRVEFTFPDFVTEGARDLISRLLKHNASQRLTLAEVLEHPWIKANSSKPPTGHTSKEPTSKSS
Method: To examine whether this MYC degradation is associated with MYC-AURKA PPI disruption, the inventors performed proximity ligation assays (PLA) in NMP53^−/− cells. For Proximity Ligation Assay (PLA), 50 000 cells were seeded on 12 mm glass slides placed in 6 well plates. On the next day, the cells were treated with the indicated compounds or the corresponding DMSO concentration for 2 h (compound 2c [N-(5-((4-(1H-pyrazole-4-yl)benzyl)amino)-2-fluorophenyl)-3-(furan-2-yl)propanamide] and compound 3a [N-(2-fluoro-5-((4-(1-methyl-1H-pyrazole-4-yl)benzyl)amino)phenyl)-3-(furan-2-yl)propanamide]) or 24 h (alisertib) and fixed for 10 min in 100% MeOH at −20° C. The glass slides were removed from the 6 well plates and the cells permeabilized with TBS+0.3% Triton X-100 for 5 min. After washing with PBS and blocking with 5% BSA in TBS+0.05% Tween for 30 min, the slides were incubated with MYC (Abeam ab32072, 1:200) and AURKA (Abcam ab13824, 1:200) specific antibodies in 1% BSA in TBS+0.05% Tween for 120 min at RT and washed 3 times with PBS for 5 min, wherein the MYC/TPX2 and AURKA specific antibodies are derived from a different species. After a 20 min pre-incubation of two PLA probes, directed against either species of the MYC/TPX2 and AURKA specific antibodies, at RT (DUO92001 and DUO92005 Sigma Aldrich, diluted 1:10 in 1% BSA in TBS+0.05% Tween), the slides were incubated with the probes for 60 min at 37° C. in a humidified chamber. The slides were washed 3 times with 1× wash buffer A (Sigma Aldrich DUO82049) for 5 min and incubated with the ligase solution (ligase diluted 1:40 in 5× ligase buffer and ddH2O, Sigma Aldrich DUO92008) for 60 min at 37° C. in a humidified chamber. […] The foci per cell were counted in a way that the cytoplasmic foci are counted to the cell with the closest nucleus (DAPI). Significance was calculated with the GraphPad Prism 8.4.0 software (GraphPad Software, La Jolla, CA) by using the nonparametric Mann Whitney test.

Aurora A, sequence (O14965 whole entry): as the sequence (O14965 whole entry) above

| IC50 (Aurora A; read-out: IC50 (AURKA)) | IC50 (AURKA) | reduction of the MYC-AURKA interaction compared to DMSO (MYC-AURKA interaction) | IC50 (AURKA) (Aurora A) | Structure (SMILES) |
| --- | --- | --- | --- | --- |
| 259 nM | 27.6 nM | 66.7% |  | O=C(CCc1ccco1)Nc1cc(NCc2ccc(-c3cn[nH]c3)cc2)ccc1F [Compound 2c, N-(5-((4-(1H-pyrazole-4-yl)benzyl)amino)-2-fluorophenyl)-3-(furan-2-yl)propanamide] |
|  | > 10000 nM | 50% | no kinase inhibition | Cn1cc(-c2ccc(CNc3ccc(F)c(NC(=O)CCc4ccco4)c3)cc2)cn1 [Compound 3a, N-(2-fluoro-5-((4-(1-methyl-1H-pyrazole-4-yl)benzyl)amino)phenyl)-3-(furan-2-yl)propanamide] |
